# From publication PMC11995226, “Linker-Determined Folding and Hydrophobic Interactions Explain a Major Difference in PROTAC Cell Permeability” (ACS Medicinal Chemistry Letters, 2025)
# Read-outs that look alike come from different tables or passages of the source.
# Experiments:
# [1] = FaSSIF and FeSSIF solubility; type: physicochemical
# Procedure: 1. Experimental and Computational Methods
# Fasted and Fed State Simulated Intestinal Fluid (FaSSIF and FeSSIF) Solubility.
# Suspensions of amorphous 1 and 2 were stirred at 37 °C in FaSSIF and FeSSIF for 24 h ± 4 h
# prior to filtration and analysis of the filtrate. The solubility was determined via HPLC-MS
# analysis of the filtrate using a calibration curve (external standard). […]
# [2] = parameters: method as in PMID 39693386; conditions: logarithm of Pe; Data reported recently; cited from earlier work
# [3] = EPSA (experimental polar surface area, chromatographic); type: physicochemical
# Procedure: 1. Experimental and Computational Methods […]
# EPSA. EPSA retention times for 1 and 2 were determined at Sygnature Discovery. In brief, the
# EPSA assay was performed on a Waters Acquity UPC2 system equipped with a PDA and a
# QDa detector, using a Phenomenex Chirex (S)-VAL and (R)-NEA LC column (50 x 4.6 mm).
# A gradient of MeOH, containing 20 mM ammonium formate, in CO2 was used as eluent.
# [4] = parameters: method as in PMID 39693386; conditions: Data reported recently; cited from earlier work
# [5] = FaSSIF, pH 6.5, 37 °C, read-out: Solubility FaSSIF, pH 6.5
# [6] = FeSSIF, pH 5.0, 37 °C, read-out: Solubility FeSSIF, pH 5.0
"solubility at 24 h [1, 5] [µM]","solubility at 24 h [1, 6] [µM]",EPSA [3] [A^2],Compound,PAMPA Log[Pe (cm/s)] [2],"Solubility PBS, pH 6.5 [4] [μM]"
53.2,349,91.5,Cc1ncsc1-c1ccc(CNC(=O)[C@@H]2C[C@@H](O)CN2C(=O)[C@@H](NC(=O)CCOCCOCCOc2cnc3c(C4CCN(C(=O)c5ccc(OC(F)(F)F)cc5)CC4)ncnc3c2)C(C)(C)C)cc1 [PROTAC 2],-5.4 log10(Pe in cm/s),–
18.6,174,93.1,Cc1ncsc1-c1ccc(CNC(=O)[C@@H]2C[C@@H](O)CN2C(=O)[C@@H](NC(=O)CCCCCCCCOc2cnc3c(C4CCN(C(=O)c5ccc(OC(F)(F)F)cc5)CC4)ncnc3c2)C(C)(C)C)cc1 [PROTAC 1],-8.3 log10(Pe in cm/s),< 0.1
